The values that follow come from patent publication US20210346461A1, “UTILIZATION OF ENDOGENOUS OUBAIN-REGULATING COMPOUNDS AND COMPOSITIONS THEREOF IN TREATMENT OF VASCULAR DISEASE” (priority 2020, published 2021).

“Also recorded” adds a separate entry of the source. Where two headings read alike, the source gives them in different places.

The conditions of assay [1]: cited from earlier work.
For assay [2], the system named is intact nonpregnant systemic vessels. Put plainly: PGI2 response in intact nonpregnant systemic vessels (GABA dose response curves). The settings on record: for PGI2 levels on addition of Nanomolar Ouabain: most concentrations of GABA. The class given is cell-based, sheep. The source says:
FIG. 2A is a graph of laboratory data indicating PGI2 response in intact nonpregnant systemic vessels at various levels of GABA, wherein neither Taurine nor Ouabain is provided without and with the provision of AII.
FIG. 2B is a graph of laboratory data indicating PGI2 response in intact nonpregnant systemic vessels at various levels of GABA, wherein neither Taurine nor AII is provided—without and with the provision of Ouabain.
FIG. 2C is a graph of laboratory data indicating PGI2 response in intact nonpregnant systemic vessels at various levels of GABA, wherein AII is provided and Taurine is not—without and with the provision of Ouabain.
In FIGS. 2A-2C, GABA dose response curves of systemic vessels in 18 day postpartum sheep are provided. These vessels are believed to be representative of non-pregnant normotensive systemic vessels. […] Accordingly, it appears that at least one of Taurine or EO (or the like) may be needed to up-regulate the GABA-a receptor to augment PGI2 levels in the presence of nanomolar ouabain, or may at least be substantially helpful to increase PGI2 levels.

Assay [3] deals with pregnant uterine arteries. Put plainly: PGI2 release/response in pregnant uterine arteries. The class given is cell-based. The source says:
FIG. 1A is a graph of laboratory data indicating PGI2 response in pregnant uterine arteries at various levels of Ouabain, wherein GABA is provided and Taurine is not—both without and with the provision of AII.
FIG. 1B is a graph of laboratory data indicating PGI2 response in pregnant uterine arteries at various levels of Ouabain, wherein both GABA and Taurine are provided—without and with the provision of AII.
FIG. 3A is a graph of laboratory data indicating PGI2 response in pregnant uterine arteries at various levels of GABA, wherein neither Taurine nor Ouabain is provided—without and with the provision of AII.
FIGS. 4A and 4B are graphs of laboratory data illustrating PGI2 response to taurine levels, GABA levels, and the provision of AII in pregnant uterine vessels with lower and higher Ouabain conditions, respectively.
FIGS. 5B is a graph of laboratory data illustrating PGI2 response in pregnant uterine arteries to the provision of various combinations of GABA, AII, and bicuculine.
(§1) FIG. 6 is a graph illustrating changes in PGI2 response versus basal levels, in both pregnant uterine vessels and pregnant systemic vessels, when the endothelium is removed.

Assay [4] deals with pregnant systemic arteries. Put plainly: PGI2 release/response in pregnant systemic arteries. The assay is classed as cell-based.
Description: FIG. 3B is a graph of laboratory data indicating PGI2 response in pregnant systemic arteries at various levels of GABA, wherein neither Taurine nor Ouabain is provided—without and with the provision of AII.
FIGS. 5A is a graph of laboratory data illustrating PGI2 response in pregnant systemic arteries to the provision of various combinations of GABA, AII, and bicuculine.
as §1

In assay [5] the test system is Cyclooxygenase (COX). The note with it: pharmacological blockade of COX; cited from earlier work.

For `NCCCC(=O)O` [GABA], the values for the blood pressure entry in assay [1] (eHTN humans) and in assay [1] (normotensive patients) were “lower blood pressure” and “no effect to reduce blood pressure”, respectively. In addition, the “PGI2 response to GABA” value in assay [2] (FIG. 2A/2B, 18 day postpartum sheep, no Ouabain, no Taurine) is listed as “no PGI2 response; also recorded: did not release significant PGI2”. In addition, the “PGI2 release with GABA and AII” value in assay [3] (FIG. 4A, low levels of taurine and low Ouabain) is reported as “PGI2 release increased”. Further, the “PGI2 release on addition of GABA” value in assay [3] (FIG. 5B col. 2, GABA alone, no AII) is listed as “insignificant effect on PGI2 release”; in assay [3] (together with AII) it was “increase PGI2; also recorded: increased PGI2 release”. Also, the “PGI2 release on exposure to GABA” value in assay [4] (absence of AII) is reported as “increased PGI2 release; also recorded: responded to make PGI2”.
Consider `C[C@@H]1O[C@@H](O[C@H]2C[C@@H](O)[C@]3(CO)[C@H]4[C@H](O)C[C@]5(C)[C@@H](C6=CC(=O)OC6)CC[C@]5(O)[C@@H]4CC[C@]3(O)C2)[C@H](O)[C@H](O)[C@H]1O` [Ouabain], for which the “PGI2 levels on addition of Nanomolar Ouabain” value is “significant increase in PGI2 levels” in assay [2] (FIG. 2B, without AII, no Taurine) and “significant increase in PGI2 levels” in assay [2] (FIG. 2C, with AII, no Taurine). In addition, the “PGI2 release with increase in Ouabain” value in assay [3] (FIGS. 4A/4B, Ouabain from −10M to −9M, low taurine, GABA approx. −7M) is “higher PGI2 release”.
For the molecule `NCCS(=O)(=O)O` [Taurine, 2-amino-ethane sulfonic acid], the “overall PGI2 release with vs without Taurine” value in assay [3] (FIG. 1A vs 1B, regardless of AII presence) is given as “overall PGI2 release appears higher without Taurine”.
With `CC(=O)Oc1ccccc1C(=O)O` [aspirin], in assay [5], the resting blood pressure entry is listed as “does not substantially affect resting blood pressure”.
As for `CN1CCc2cc3c(cc2[C@H]1[C@@H]1OC(=O)c2c1ccc1c2OCO1)OCO3` [bicuculine], the “PGI2 release on blocking GABA-a receptors” value in assay [3] (FIG. 5B, also when additional GABA was added (col. 5)) is “substantially reduced PGI2 release”; in assay [4] (FIG. 5A), “reduced PGI2 release”.
As to `COc1ccc2c(c1)c(CC(=O)O)c(C)n2C(=O)c1ccc(Cl)cc1` [indomethacin], the resting blood pressure result in assay [5] was “does not substantially affect resting blood pressure”.
In the case of `NCC(CP(=O)(O)O)c1ccc(Cl)cc1` (stereo not shown) [phaclofen], in assay [3] (experiments similar to FIGS. 5A/5B in pregnant vessels, data not shown), the “PGI2 release on GABA-b receptor blockade” value is “did not affect PGI2 release”.
Consider Angiotensin II [AII], for which the “PGI2 formation by presence or absence of Angiotensin II” value in assay [2] (FIG. 2A, exposed to GABA, without Taurine or EO) is recorded as “no significant PGI2 formation”. Further, the “PGI2 release on addition of AII” value in assay [2] (FIG. 2B vs 2C, in the presence of Ouabain, especially at higher GABA) is listed as “substantially more PGI2 release”. The “effect of presence or absence of AII on PGI2 release” value in assay [3] (FIG. 1A, GABA provided, without taurine, various levels of Ouabain) is listed as “negligible effect on PGI2 release”. Further, the “PGI2 release difference responsive to presence or absence of AII” value in assay [3] (FIG. 3A, GABA concentrations of −7M, −6M, −5M) is recorded as “no significant PGI2 release difference”. For the same molecule, the “PGI2 release with AII vs without AII” value in assay [3] (FIG. 3A, most levels of GABA, no Taurine, no Ouabain) is “more PGI2 is released”. In assay [3] (FIG. 5B col. 4, bicuculine and GABA present), the “PGI2 release on further addition of AII” value is reported as “even further decreased PGI2”. The “PGI2 release in the presence of AII” value in assay [3] (FIG. 6, endothelium removed) is “reduced”; in assay [4] (FIG. 6, endothelium removed), “increased”. The “relationship between PGI2 release and AII presence” value in assay [4] (FIG. 3B, various GABA levels, no Taurine, no Ouabain, compared with uterine circuit) is listed as “substantially inverted”.
